Assay results reported in patent US10729130B2, “Nematicidal compositions and methods of using them” (Eden Research plc, priority 2004, dated 2020).
Several values for one entry are separate records, joined by “and”; a condition that tells them apart may be missing. Identical values can stand only once.

Experiments:
[1] = Terpene loading with surfactant, Tween-80:terpene ratio (free terpene score); assay type: physicochemical; set-up: key: Sl = slight; conditions: 250 mg/ml YP
Description: Samples were centrifuged at 14,000×g for 10 minutes and the appearance of free terpene floating on the aqueous layer was scored. The expression “free terpene” refers to the visible presence of terpene in the centrifuged reaction mixture. The absence of free terpene indicates complete absorption and encapsulation of the terpene by the YP. The highest volume of terpene absorbed by the YP, as evidenced by the absence of free terpene, was recorded as the maximal volume of absorbed terpene emulsion.

[2] = SAF Mannan loading of different terpenes and terpene mixtures; assay type: physicochemical; set-up: key to Free Terpene: +: “free terpene” refers to the visible presence of terpene in the centrifuged reaction mixture; −: The absence of free terpene indicates complete absorption of the terpene by the particles; key to Free Terpene: phase inversion remark: Inverted = Phase Inverted - solids floating on top - no free oil; W = white; Y = yellow; conditions: for Free Terpene: SAF Mannan 500 μl (250 mg/ml), overnight, room temperature; for Free Terpene: phase inversion remark: SAF Mannan 500 μl, second line of the Free Terpene cell; for Vol. loaded (maximal terpene loading in SAF Mannan): approximate maximal loading, volume of terpene emulsion absorbed by SAF Mannan; for % Loaded w/w (maximal terpene loading in SAF Mannan): ratio of amount of terpene loaded to amount of particle present (weight for weight)
Description: (§1) Increasing volumes of terpene emulsion were mixed with 250 mg/ml Baker's YP or 250 mg/ml SAF Mannan™ overnight at room temperature as shown in Tables 27 and 28. Samples were centrifuged at 14,000×g for 10 minutes and the appearance of free terpene floating on the aqueous layer was scored. The highest volume of terpene emulsion absorbed by Baker's YP or SAF Mannan™ as evidenced by the absence of free terpene was recorded as the volume of absorbed terpene emulsion. Colour of encapsulated terpenes in the pellet was recorded.
(§2) Percentage loaded represents a ratio of the amount of terpene loaded to the amount of particle present (weight for weight).

Saprophagous nematodes = experiment: Nematicidal activity of citral on Saprophagous nematodes (selectivity experiment); conditions: 250 ppm
Description: Living saprophagus nematodes move rapidly in water. The control used was the nematodes in water alone.
The figures given are for the percentage of nematodes found to be dead upon microscopic examination and are the average of 2 replicates.

[3] = Baker's YP loading of different terpenes and terpene mixtures; assay type: physicochemical; set-up: key to Free Terpene: +: “free terpene” refers to the visible presence of terpene in the centrifuged reaction mixture; −: The absence of free terpene indicates complete absorption of the terpene by the particles; conditions: for Free Terpene: Baker's YP 250 mg/ml 500 μl; for Vol. Loaded μl: approximate maximal terpene loading in Baker's YP
Description: as §1, §2

[4] = Screen of commercially available particles for terpene absorption (free terpene score); assay type: physicochemical; set-up: key: +: “free terpene” refers to the visible presence of terpene in the centrifuged reaction mixture; −: The absence of free terpene indicates complete absorption of the terpene by the particles; conditions: overnight
Description: The following protocol was performed to analyse the loading properties of different types of particles. The particles studied were Baker's Yeast Particles (Sigma Chemical Corp., St. Louis, Mo.), Nutrex™ Walls (Sensient Technologies, Milwaukee, Wis.), SAF-Mannan™ (SAF Agri, Minneapolis, Minn.), Nutricept Walls™ (Nutricepts Inc., Burnsville, Minn.), Levacan™ (Savory Systems International, Inc., Branchburg, N.J.) and WGP™ (Alpha-beta Technology, Inc. Worcester, Mass.).
The YP suspensions were prepared as follows: • Baker's yeast particle suspension (YP) was prepared by mixing 250 mg YP/ml 1% Tween 80. • Nutrex suspension was prepared by mixing 163 mg Nutrex YGP/ml 1% Tween 80. • SAF Mannan suspension was prepared by mixing 234 mg Biospringer YGP/ml 1% Tween 80. • Nutricepts suspension was prepared by mixing 99 mg Nutricepts YGP/ml 1% Tween 80. • Levacan suspension was prepared by mixing 217 mg Lev YGP/ml 1% Tween 80. • WGP suspension was prepared by mixing 121 mg WGP YGP/ml 1% Tween 80.
The packed volume of the above particles is identical which means that equal numbers of particles were assayed.
Loading reactions were set up as shown in Table 25 and left to incubate overnight. Samples were centrifuged at 14,000×g for 10 minutes and the appearance of free terpene floating on the aqueous layer and the color of the encapsulated terpenes in the pellet was scored. The highest volume of terpene absorbed by particles as evidenced by the absence of free terpene was recorded as the volume of absorbed terpene emulsion.

[5] = terpene emulsion vol 15, 1% Tween-80 485 μl
[6] = terpene emulsion vol 37.5, 1% Tween-80 462.5 μl
[7] = terpene emulsion vol 75, 1% Tween-80 425 μl
[8] = terpene emulsion vol 112.5, 1% Tween-80 387.5 μl
[9] = terpene emulsion vol 450, 1% Tween-80 50 μl
[10] = emulsion 15 μl, 1% Tween-80 485 μl
[11] = emulsion 37.5 μl, 1% Tween-80 462.5 μl
[12] = emulsion 150 μl, 1% Tween-80 350 μl
[13] = emulsion 225 μl, 1% Tween-80 275 μl
[14] = Baker's 250 mg/ml, emulsion 125 μl L-carvone or 100 μl Citral
[15] = Levacan 217 mg/ml, emulsion 125 μl L-carvone or 100 μl Citral
[16] = Nutrex 163 mg/ml, emulsion 125 μl L-carvone or 100 μl Citral
[17] = Nutricepts 99 mg/ml, emulsion 125 μl L-carvone or 100 μl Citral
[18] = SAF Mannan 234 mg/ml, emulsion 125 μl L-carvone or 100 μl Citral
[19] = WGP 121 mg/ml, emulsion 125 μl L-carvone or 100 μl Citral
[20] = no particle, emulsion 125 μl L-carvone or 100 μl Citral in 1% Tween 80

Compound	Free Terpene [2, 5]	Free Terpene [2, 6]	Free Terpene [2, 7]	Free Terpene [2, 8]	Free Terpene [2, 9]	Vol. loaded (maximal terpene loading in SAF Mannan) [2] [µL]	% Loaded w/w (maximal terpene loading in SAF Mannan) [2] [% w/w]	Free Terpene [3, 10]	Free Terpene [3, 11]	Free Terpene [3, 12]	Free Terpene [3, 13]	Vol. Loaded μl [3] [µL]	Free Terpene [4, 14]	Free Terpene [4, 15]	Free Terpene [4, 16]	Free Terpene [4, 17]	Free Terpene [4, 18]	Free Terpene [4, 19]	Free Terpene [4, 20]	further results
CC(C)=CCCC(C)=CC=O [Citral, citral]	−	−	−	−	+	150	133	−	−	+	+	75	−	+	−	+	−	+	+	Free Terpene ([1]; Citral emulsion 113 μl, 10% Tween-80 33 μl): Sl; Free Terpene ([1]; Citral emulsion 113 μl, 10% Tween-80 100 μl): Sl; Free Terpene ([2]; terpene emulsion vol 225, 1% Tween-80 275 μl): +; Free Terpene: phase inversion remark ([2]; terpene emulsion vol 150): Inverted; Free Terpene: phase inversion remark ([2]; terpene emulsion vol 225): Inverted; Free Terpene: phase inversion remark ([2]; terpene emulsion vol 450): Inverted; % dead (Saprophagous nematodes; 24 h): 43% and 50%; % dead (Saprophagous nematodes; 48 h): 50% and 52%; Free Terpene ([3]; emulsion 75 μl, 1% Tween-80 425 μl): −; Free Terpene ([3]; emulsion 450 μl, 1% Tween-80 50 μl): +
L-carvone	−	−	−	−	+	112.5	100	−	−	+	+	37.5	−	+	−	+	−	+	+	Free Terpene ([1]; L-carvone emulsion 150 μl, 10% Tween-80 0 μl): Sl; Free Terpene ([1]; L-carvone emulsion 150 μl, 10% Tween-80 5 μl): Sl; Free Terpene ([1]; L-carvone emulsion 150 μl, 10% Tween-80 10 μl): Sl; Free Terpene ([1]; L-carvone emulsion 150 μl, 10% Tween-80 33 μl): Sl; % Loaded w/w ([3]; maximal loading in Baker's YP, ratio of terpene loaded to particle present, weight for weight): 33.3 % w/w
